Results: ChEMBL document CHEMBL1135321, “Tetrahydrothienopyridylbutyl-tetrahydrobenzindoles: new selective ligands of the 5-HT(7) receptor” (Bioorg Med Chem Lett, 2002)
The source made the active and inactive calls. The rule behind the calls is not given here.

What was measured:
[1] = molecular target: Serotonin 2 (5-HT2) receptor (Rattus norvegicus, UniProt P30994+P08909+P14842); assay: Ability to displace the radioligand [3H]ketanserin from 5-hydroxytryptamine 2 receptor of rat cerebral cortex membrane; type: tissue-based
[2] = molecular target: 5-hydroxytryptamine receptor 7 (Homo sapiens, UniProt P34969); assay: Ability to displace the radioligand [3H]5-carboxyamidotryptamine ([3H]5-CT) from human 5-hydroxytryptamine 7 receptor expressed in COS-7 cells; type: cell-based
5-hydroxytryptamine receptor 7, sequence (P34969 whole entry): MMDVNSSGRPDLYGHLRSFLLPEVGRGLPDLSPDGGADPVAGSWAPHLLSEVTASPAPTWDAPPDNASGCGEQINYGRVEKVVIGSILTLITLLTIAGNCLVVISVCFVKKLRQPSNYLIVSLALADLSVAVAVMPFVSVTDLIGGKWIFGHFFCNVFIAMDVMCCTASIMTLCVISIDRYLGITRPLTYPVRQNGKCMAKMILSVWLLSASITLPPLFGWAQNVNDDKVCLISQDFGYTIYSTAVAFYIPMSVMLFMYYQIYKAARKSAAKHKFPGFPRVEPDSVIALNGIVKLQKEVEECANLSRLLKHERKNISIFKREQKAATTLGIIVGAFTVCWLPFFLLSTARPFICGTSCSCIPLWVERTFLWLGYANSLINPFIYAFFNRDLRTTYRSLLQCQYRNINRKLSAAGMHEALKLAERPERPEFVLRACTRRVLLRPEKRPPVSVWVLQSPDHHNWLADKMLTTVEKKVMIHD

HEK293 = assay: Influence on 5-HT-induced stimulation of cAMP accumulation in HEK 293 cells; NS is not Stimulated; type: functional, cell-based; details: Homo sapiens
[3] = molecular target: T1, 5-hydroxytryptamine receptor 4 (Cavia porcellus, UniProt O70528); assay: Ability to displace the radioligand [3H]GR-113808 from guinea pig striatum 5-hydroxytryptamine 4 receptor
T1 sequence (O70528 whole entry): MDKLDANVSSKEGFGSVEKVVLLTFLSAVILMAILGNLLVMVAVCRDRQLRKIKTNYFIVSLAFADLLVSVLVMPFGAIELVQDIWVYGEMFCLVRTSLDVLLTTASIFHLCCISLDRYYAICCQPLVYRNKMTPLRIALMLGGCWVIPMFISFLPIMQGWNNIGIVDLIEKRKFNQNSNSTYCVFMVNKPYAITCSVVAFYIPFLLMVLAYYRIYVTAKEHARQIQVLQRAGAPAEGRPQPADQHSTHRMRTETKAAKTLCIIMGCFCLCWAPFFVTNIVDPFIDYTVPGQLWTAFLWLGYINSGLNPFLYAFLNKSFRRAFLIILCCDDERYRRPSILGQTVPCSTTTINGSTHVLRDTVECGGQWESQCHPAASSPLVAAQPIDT

[4] = molecular target: 5-hydroxytryptamine receptor 6 (Homo sapiens, UniProt P50406); assay: Ability to displace the radioligand [3H]LSD from human 5-hydroxytryptamine 6 receptor
5-hydroxytryptamine receptor 6, sequence (P50406 whole entry): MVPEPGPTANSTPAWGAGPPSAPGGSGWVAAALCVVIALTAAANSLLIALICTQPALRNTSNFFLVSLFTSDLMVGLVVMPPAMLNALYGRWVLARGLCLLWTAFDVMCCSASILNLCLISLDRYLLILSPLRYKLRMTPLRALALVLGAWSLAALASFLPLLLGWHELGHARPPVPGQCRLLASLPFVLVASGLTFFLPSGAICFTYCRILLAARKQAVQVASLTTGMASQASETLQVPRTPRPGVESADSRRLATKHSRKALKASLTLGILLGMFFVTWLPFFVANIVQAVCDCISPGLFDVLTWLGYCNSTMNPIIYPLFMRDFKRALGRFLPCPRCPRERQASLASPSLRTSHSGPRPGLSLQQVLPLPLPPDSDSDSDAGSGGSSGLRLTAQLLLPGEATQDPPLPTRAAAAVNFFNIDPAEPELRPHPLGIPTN

[5] = molecular target: T2, 5-hydroxytryptamine receptor 1A (Homo sapiens, UniProt P08908); assay: Ability to displace the radioligand [3H]-8-OH-DPAT from human 5-hydroxytryptamine 1A receptor
T2 sequence (P08908 whole entry): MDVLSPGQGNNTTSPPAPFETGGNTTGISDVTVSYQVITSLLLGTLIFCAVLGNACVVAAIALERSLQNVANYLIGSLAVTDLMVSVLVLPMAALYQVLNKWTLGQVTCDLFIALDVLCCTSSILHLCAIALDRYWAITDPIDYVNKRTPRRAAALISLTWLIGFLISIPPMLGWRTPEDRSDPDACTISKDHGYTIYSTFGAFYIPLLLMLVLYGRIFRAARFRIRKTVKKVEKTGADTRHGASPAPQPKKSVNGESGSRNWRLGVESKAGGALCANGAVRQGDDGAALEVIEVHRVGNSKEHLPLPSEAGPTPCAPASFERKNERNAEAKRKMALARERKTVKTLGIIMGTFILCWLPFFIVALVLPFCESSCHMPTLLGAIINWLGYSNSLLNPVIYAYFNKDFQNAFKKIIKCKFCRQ

[6] = molecular target: T3, Serotonin 3 receptor (5HT3) (Mus musculus, UniProt Q9JHJ5+P23979); assay: Ability to displace the radioligand [3H]GR-65630 from 5-hydroxytryptamine 3 receptor expressed in NIE-115 cells; type: cell-based
T3 sequence (Q9JHJ5 whole entry): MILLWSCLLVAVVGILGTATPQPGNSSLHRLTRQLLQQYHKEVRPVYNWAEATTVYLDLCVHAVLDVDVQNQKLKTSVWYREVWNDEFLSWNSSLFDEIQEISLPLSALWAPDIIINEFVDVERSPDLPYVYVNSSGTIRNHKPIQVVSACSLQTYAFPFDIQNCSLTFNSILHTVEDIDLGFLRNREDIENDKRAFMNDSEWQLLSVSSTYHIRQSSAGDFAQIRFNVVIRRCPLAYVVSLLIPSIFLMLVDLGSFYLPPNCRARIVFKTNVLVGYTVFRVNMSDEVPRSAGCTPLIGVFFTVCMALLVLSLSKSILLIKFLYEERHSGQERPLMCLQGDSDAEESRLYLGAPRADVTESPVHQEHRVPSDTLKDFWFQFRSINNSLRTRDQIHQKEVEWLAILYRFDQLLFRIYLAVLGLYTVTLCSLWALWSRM
T3 sequence (P23979 whole entry): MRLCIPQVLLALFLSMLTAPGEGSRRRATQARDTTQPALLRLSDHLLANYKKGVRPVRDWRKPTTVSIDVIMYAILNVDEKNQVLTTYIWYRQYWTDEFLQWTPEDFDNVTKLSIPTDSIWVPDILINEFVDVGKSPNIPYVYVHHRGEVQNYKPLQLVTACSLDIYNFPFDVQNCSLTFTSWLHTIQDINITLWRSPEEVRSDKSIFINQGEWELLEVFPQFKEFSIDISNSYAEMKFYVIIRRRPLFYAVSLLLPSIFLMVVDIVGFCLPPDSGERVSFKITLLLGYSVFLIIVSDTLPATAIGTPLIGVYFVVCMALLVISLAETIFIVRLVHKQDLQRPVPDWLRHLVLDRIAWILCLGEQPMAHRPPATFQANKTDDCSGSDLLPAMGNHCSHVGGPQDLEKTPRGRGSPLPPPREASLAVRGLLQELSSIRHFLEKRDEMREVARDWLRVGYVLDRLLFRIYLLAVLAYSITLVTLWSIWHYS

[7] = molecular target: T4, 5-hydroxytryptamine receptor 1B (Rattus norvegicus, UniProt P28564); assay: Ability to displace the radioligand [125I](-)-iodocyanopindolol from rat striatal 5-hydroxytryptamine 1B receptor
T4 sequence (P28564 whole entry): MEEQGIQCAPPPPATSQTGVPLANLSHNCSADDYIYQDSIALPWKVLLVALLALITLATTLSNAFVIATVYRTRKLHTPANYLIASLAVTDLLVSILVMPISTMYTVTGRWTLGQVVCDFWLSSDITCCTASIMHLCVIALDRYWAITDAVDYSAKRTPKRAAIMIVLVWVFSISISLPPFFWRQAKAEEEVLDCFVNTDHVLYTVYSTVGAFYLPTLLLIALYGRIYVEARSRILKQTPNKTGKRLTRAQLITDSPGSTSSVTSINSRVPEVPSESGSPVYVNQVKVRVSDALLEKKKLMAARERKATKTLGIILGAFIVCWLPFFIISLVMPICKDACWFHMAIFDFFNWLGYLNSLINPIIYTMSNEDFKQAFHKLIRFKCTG

[8] = molecular target: T1, 5-hydroxytryptamine receptor 4; assay: Ability to displace the radioligand [3H]GR-113808 from guinea pig striatum 5-HT4 receptor
[9] = molecular target: T4, 5-hydroxytryptamine receptor 1B; assay: Ability to displace the radioligand [125I](-)-iodocyanopindolol from rat striatal 5-HT1B receptor

In the case of CCN1C(=O)C2(CCCCN3CCc4sccc4C3)CCCc3cccc1c32 (centres undefined), the “Log Ki” value [1] is reported as -6.31 and the Ki [2] is reported as 174 nM.

O=C1Nc2cccc3c2C1(CCCCN1CCc2sccc2C1)CCC3 (centres undefined) was tested, and the Activity (HEK293) was “inactive”, the “Log Ki” value [1] was -6.08 and the Ki [3] was over 1000 nM. For the same molecule, the Ki [4] was over 1000 nM, the Ki [5] was 513 nM and the “Log Ki” value [6] was under -6. For the same molecule, the Ki [2] was 6.46 nM and the Ki [7] was over 1000 nM.

In the case of O=C1Nc2cccc3c2C1(CCCCN1CCc2ccccc2C1)CCC3 (centres undefined), the “Log Ki” value [1] is reported as -6.21 and the Ki [2] is reported as 4.47 nM.

For O=C1Nc2cccc3c2C1(CCCCN1CCc2n[nH]cc2C1)CCC3 (centres undefined), the “Log Ki” value [1] was under -6 and the Ki [2] was 813 nM.

With O=C1Nc2cccc3c2C1(CCCCN1CCc2[nH]cnc2C1)CCC3 (centres undefined) the “Log Ki” value [1] was under -6 and the Ki [2] was 562 nM.

For CN1C(=O)C2(CCCCN3CCc4sccc4C3)CCCc3cccc1c32 (centres undefined), the “Log Ki” value [1] was -6.02, the Ki [4] was over 1000 nM and the Ki [5] was 776 nM. The Ki [8] was over 1000 nM, the “Log Ki” value [6] was under -6 and the Ki [9] was over 1000 nM. It also gave a Ki [2] of 9.77 nM.

With O=C1Nc2cccc3c2C1(CCCCN1CCc2occc2C1)CCC3 (centres undefined) the “Log Ki” value [1] was under -6 and the Ki [2] was 15.8 nM.

In the case of O=C1Nc2cccc3c2C1(CCCCCN1CCc2ccccc2C1)CCC3 (centres undefined), the “Log Ki” value [1] is reported as -6.16 and the Ki [2] is reported as 12.6 nM.

With O=C1Nc2cccc3c2C1(CCCN1CCc2ccccc2C1)CCC3 (centres undefined) the “Log Ki” value [1] was -6.31 and the Ki [2] was 8.32 nM.
